In US20110077251A1, “NOVEL 17 BETA LUPANE DERIVATIVES” (priority 2009, published 2011):

How the values were obtained:
[1] = test system: HIVIIIB; assay: HIV-1 replication in MT2 cell line without human serum (RT activity in supernatant); assay type: cell-based; details: Human immunodeficiency virus 1, 120 h, MT2 cells, day 5 after infection, average if tested more than once, read-out: MT2 (HIVIIIB) IC50 range
Method: (§1) HIV-1 Replication in MT2 cell line with and without 30% human serum: The cells are infected at a Multiciplicity of Infection (MOI) of 0.5 for 3 h and then washed twice with complete media to remove residual virus. Cells are then resuspended at 0.5×10^6/ml in complete medium (RPMI, 10% FBS, 1% sodium pyruvate), and seeded into 96-well plates (6.25×10^4/well). The cells are cultured in the presence or absence of various concentrations of test compounds in serial dilutions for 3 days at 37° C. The test compounds are serially diluted in complete medium supplemented or not with 30% human serum. After 3 days, 100 μL of cultured medium with cells are replaced with 120 μL of freshly diluted test compounds in complete medium containing or not 30% Human serum. The level of HIV-1 replication is determined at days 5 after infection by the presence of viral RT activity in harvested supernatant fluid. The IC50 values for the virus replication are determined by using GRAPHPAD PRISM software.
(§2) The IC50 of the compounds tested in accordance with the HIV replication activity assay MT2 (HIVIIIB) with or without human serum are represented in Table 6.

[2] = test system: HIVIIIB; assay: HIV-1 replication in MT2 cell line with 30% human serum (RT activity in supernatant); assay type: cell-based; details: MT2 cells, day 5 after infection, average if tested more than once, read-out: MT2 (HIVIIIB) with human serum IC50 range
Method: as §1, §2

[3] = Human immunodeficiency virus 1, 120 h

| Molecule | IC50 [2, 3] | also measured |
| --- | --- | --- |
| C=C(C)[C@@H]1CC[C@]2(NC(=O)CC(C)(C)C(=O)O)CC[C@]3(C)[C@H](CC[C@@H]4[C@@]5(C)CC[C@H](OC(=O)CC(C)(C)C(=O)O)C(C)(C)[C@@H]5CC[C@]43C)[C@@H]12 [Cpd 13-4, 3β-O,17β-N-bis(3′,3′-dimethylsuccinyl)-28-norlup-20(29)-ene] |  | IC50 [1]: < 199 nM |
| C=C(C)[C@@H]1CC[C@]2(NC(=O)c3ccccc3)CC[C@]3(C)[C@H](CC[C@@H]4[C@@]5(C)CC[C@H](OC(=O)CC(C)(C)C(=O)O)C(C)(C)[C@@H]5CC[C@]43C)[C@@H]12 [Cpd 13-7, 17β-Benzoylamino-3β-O-(3′,3′-dimethylsuccinyl)-28-norlup-20(29)-ene] |  | IC50 [1]: < 199 nM |
| C=C(C)[C@@H]1CC[C@]2(NC(=O)N(C)C)CC[C@]3(C)[C@H](CC[C@@H]4[C@@]5(C)CC[C@H](OC(=O)CC(C)(C)C(=O)O)C(C)(C)[C@@H]5CC[C@]43C)[C@@H]12 [Cpd 11-13, 3β-O-(3′,3′-Dimethylsuccinyl)-17β-(N′,N′-dimethyl-ureido)-28-norlup-20(29)-ene] | < 199 nM |  |
| C=C(C)[C@@H]1CC[C@]2(NC(=O)OC(C)(C)C)CC[C@]3(C)[C@H](CC[C@@H]4[C@@]5(C)CC[C@H](OC(=O)[C@H]6CC[C@@](C)(C(=O)O)C6(C)C)C(C)(C)[C@@H]5CC[C@]43C)[C@@H]12 [Cpd 8-3, 3β-O-[(1′S,3′R)-2′,2′,3′-Trimethyl-cyclopentane-3′-carboxylic acid-1′-carboxyl]-17β-tert-butyloxycarbonylamino-28-norlup-20(29)-ene] | > 1000 nM |  |
| C=C(C)[C@@H]1CC[C@]2(N)CC[C@]3(C)[C@H](CC[C@@H]4[C@@]5(C)CC[C@H](OC(=O)[C@H]6CC[C@@](C)(C(=O)O)C6(C)C)C(C)(C)[C@@H]5CC[C@]43C)[C@@H]12 [Cpd 9-2, 3β-O-[(1′S,3′R)-2′,2′,3′-Trimethyl-cyclopentane-3′-carboxylic acid-1′-carboxyl]-17β-amino-28-norlup-20(29)-ene] | < 199 nM |  |
| C=C(C)[C@@H]1CC[C@]2(NC(=O)NC3CCCCC3)CC[C@]3(C)[C@H](CC[C@@H]4[C@@]5(C)CC[C@H](OC(=O)CC(C)(C)C(=O)O)C(C)(C)[C@@H]5CC[C@]43C)[C@@H]12 [Cpd 11-22, 3β-O-(3′,3′-Dimethylsuccinyl)-17β-(N′-cyclohexyl-ureido)-28-norlup-20(29)-ene] | < 199 nM |  |
| C=C(C)[C@@H]1CC[C@]2(N(C)C)CC[C@]3(C)[C@H](CC[C@@H]4[C@@]5(C)CC[C@H](OC(=O)CC(C)(C)C(=O)O)C(C)(C)[C@@H]5CC[C@]43C)[C@@H]12 [Cpd 10-3, 3β-O-(3′,3′-Dimethylsuccinyl)-17β-dimethylamino-28-norlup-20(29)-ene] | < 199 nM |  |
| C=C(C)[C@@H]1CC[C@]2(NC(=O)N3CCCCC3)CC[C@]3(C)[C@H](CC[C@@H]4[C@@]5(C)CC[C@H](OC(=O)CC(C)(C)C(=O)O)C(C)(C)[C@@H]5CC[C@]43C)[C@@H]12 [Cpd 11-11, 3β-O-(3′,3′-Dimethylsuccinyl)-17β-[(piperidine-1-carbonyl)-amino]-28-norlup-20(29)-ene] | < 199 nM |  |
| C=C(C)[C@@H]1CC[C@]2(NC(=O)NCC3CCN(C)CC3)CC[C@]3(C)[C@H](CC[C@@H]4[C@@]5(C)CC[C@H](OC(=O)CC(C)(C)C(=O)O)C(C)(C)[C@@H]5CC[C@]43C)[C@@H]12 [Cpd 11-14, 3β-O-(3′,3′-Dimethylsuccinyl)-17β-[N′-(1-methyl-piperidin-4-ylmethyl)-ureido]-28-norlup-20(29)-ene] | < 199 nM |  |
| C=C(C)[C@@H]1CC[C@]2(NC(=O)Nc3ccncc3)CC[C@]3(C)[C@H](CC[C@@H]4[C@@]5(C)CC[C@H](OC(=O)CC(C)(C)C(=O)O)C(C)(C)[C@@H]5CC[C@]43C)[C@@H]12 [Cpd 11-26, 3β-O-(3′,3′-Dimethylsuccinyl)-17β-(N′-pyridin-4-yl-ureido)-28-norlup-20(29)-ene] | < 199 nM |  |
| 3β-O-(2′,2′-Dimethylsuccinyl)-17β-tert-butyloxycarbonylamino-28-norlup-20(29)-ene [Cpd 8-2] |  | IC50 [2]: > 1000 nM |
| C=C(C)[C@@H]1CC[C@]2(NC(=O)OCc3ccccc3)CC[C@]3(C)[C@H](CC[C@@H]4[C@@]5(C)CC[C@H](OC(=O)CC(C)(C)C(=O)O)C(C)(C)[C@@H]5CC[C@]43C)[C@@H]12 [Cpd 14-2, 3β-O-(3′,3′-Dimethylsuccinyl)-17β-benzyloxycarbonylamino-28-norlup-20(29)-ene] |  | IC50 [1]: < 199 nM |
| C=C(C)C1CCC2(NCC3CC3)CCC3(C)C(CCC4C5(C)CCC(OC(=O)CC(C)(C)C(=O)O)C(C)(C)C5CCC43C)C12 (stereo not drawn) [Cpd 10-2, 17β-(Cyclopropylmethyl-amino)-3β-O-(3′,3′-dimethylsuccinyl)-28-norlup-20(29)-ene] |  | IC50 [2]: < 199 nM |
| C=C(C)[C@@H]1CC[C@]2(NC(=O)NCC3CCCCC3)CC[C@]3(C)[C@H](CC[C@@H]4[C@@]5(C)CC[C@H](OC(=O)CC(C)(C)C(=O)O)C(C)(C)[C@@H]5CC[C@]43C)[C@@H]12 [Cpd 11-20, 3β-O-(3′,3′-Dimethylsuccinyl)-17β-(N′-cyclohexylmethyl-ureido)-28-norlup-20(29)-ene] | < 199 nM |  |
| C=C(C)[C@@H]1CC[C@]2(NC(=O)CC(C)(C)CC(=O)O)CC[C@]3(C)[C@H](CC[C@@H]4[C@@]5(C)CC[C@H](OC(=O)CC(C)(C)CC(=O)O)C(C)(C)[C@@H]5CC[C@]43C)[C@@H]12 [Cpd 13-5, 3β-O,17β-N-bis(3′,3′-dimethylglutaryl)-28-norlup-20(29)-ene] |  | IC50 [1]: < 199 nM |
| C=C(C)[C@@H]1CC[C@]2(NC(=O)NCC3CCOCC3)CC[C@]3(C)[C@H](CC[C@@H]4[C@@]5(C)CC[C@H](OC(=O)CC(C)(C)C(=O)O)C(C)(C)[C@@H]5CC[C@]43C)[C@@H]12 [Cpd 11-21, 3β-O-(3′,3′-Dimethylsuccinyl)-17β-(N′-tetrahydropyran-4-ylmethyl-ureido)-28-norlup-20(29)-ene] | < 199 nM |  |
| C=C(C)[C@@H]1CC[C@]2(NC(=O)C(=O)OC)CC[C@]3(C)[C@H](CC[C@@H]4[C@@]5(C)CC[C@H](OC(=O)CC(C)(C)C(=O)O)C(C)(C)[C@@H]5CC[C@]43C)[C@@H]12 [Cpd 13-2, 3β-O-(3′,3′-Dimethylsuccinyl)-17β-methoxyoxalyl-amino-28-norlup-20(29)-ene] |  | IC50 [1]: < 199 nM |
| C=C(C)[C@@H]1CC[C@]2(NC(=O)N[C@@H](C)c3ccccc3)CC[C@]3(C)[C@H](CC[C@@H]4[C@@]5(C)CC[C@H](OC(=O)CC(C)(C)C(=O)O)C(C)(C)[C@@H]5CC[C@]43C)[C@@H]12 [Cpd 11-23, 3β-O-(3′,3′-Dimethylsuccinyl)-17β-(N′-(S)-1-phenyl-ethyl-ureido)-28-norlup-20(29)-ene] | < 199 nM |  |
| C=C(C)[C@@H]1CC[C@]2(NC(=O)NCc3ccc(F)cc3)CC[C@]3(C)[C@H](CC[C@@H]4[C@@]5(C)CC[C@H](OC(=O)CC(C)(C)C(=O)O)C(C)(C)[C@@H]5CC[C@]43C)[C@@H]12 [Cpd 11-18, 3β-O-(3′,3′-Dimethylsuccinyl)-17β-(N′-4-fluorophenylmethyl-ureido)-28-norlup-20(29)-ene] | < 199 nM |  |
| C=C(C)[C@@H]1CC[C@]2(NC(=O)NC(C)(C)c3ccccc3)CC[C@]3(C)[C@H](CC[C@@H]4[C@@]5(C)CC[C@H](OC(=O)CC(C)(C)C(=O)O)C(C)(C)[C@@H]5CC[C@]43C)[C@@H]12 [Cpd 11-28, 3β-O-(3′,3′-Dimethylsuccinyl)-17β-[N′-(1-methyl-1-phenylethyl)-ureido]-28-norlup-20(29)-ene] | < 199 nM |  |
| C=C(C)[C@@H]1CC[C@]2(NC(=O)c3nnc(C)o3)CC[C@]3(C)[C@H](CC[C@@H]4[C@@]5(C)CC[C@H](OC(=O)CC(C)(C)C(=O)O)C(C)(C)[C@@H]5CC[C@]43C)[C@@H]12 [Cpd 13-12, 3β-O-(3′,3′-Dimethylsuccinyl)-17β-[(5-methyl-[1,3,4]oxadiazole-2-carbonyl)-amino]-28-norlup-20(29)-ene] | < 199 nM |  |
| C=C(C)[C@@H]1CC[C@]2(N)CC[C@]3(C)[C@H](CC[C@@H]4[C@@]5(C)CC[C@H](OC(=O)CC(C)(C)C(=O)O)C(C)(C)[C@@H]5CC[C@]43C)[C@@H]12 [Cpd 9-1, 17β-Amino-3β-O-(3′,3′-dimethylsuccinyl)-28-norlup-20(29)-ene] | < 199 nM |  |
| C=C(C)[C@@H]1CC[C@]2(NC(=O)N3CCCC3)CC[C@]3(C)[C@H](CC[C@@H]4[C@@]5(C)CC[C@H](OC(=O)CC(C)(C)C(=O)O)C(C)(C)[C@@H]5CC[C@]43C)[C@@H]12 [Cpd 11-29, 3β-O-(3′,3′-Dimethylsuccinyl)-17β-[(pyrrolidine-1-carbonyl)-amino]-28-norlup-20(29)-ene] | < 199 nM |  |
| C=C(C)[C@@H]1CC[C@]2(NC(=O)c3cscn3)CC[C@]3(C)[C@H](CC[C@@H]4[C@@]5(C)CC[C@H](OC(=O)CC(C)(C)C(=O)O)C(C)(C)[C@@H]5CC[C@]43C)[C@@H]12 [Cpd 13-13, 3β-O-(3′,3′-Dimethylsuccinyl)-17β-[(thiazol-4-ylcarbonyl)-amino]-28-norlup-20(29)-ene] | < 199 nM |  |
